Reference: patent publication US8252737B2, “Antimicrobial peptides and methods of use” (priority 2004, dated 2012)
Values after ≈ are worked out from the molar mass of the structure shown. Where two headings read alike, the source gives them in different places.

Columns and labels:
[1] = test system: Staphylococcus epidermidis
[2] = test system: human erythrocytes; assay: Hemolytic activity (MHC), Protocol B, 18 hours; conditions: for MHC (μg/ml) hRBC: maximal peptide concentration with no hemolysis after 18 hours
Outline: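 Hemolysis of 1% human erythrocytes in phosphate-buffered saline by 2-fold diluted D-peptides, incubated 18 h at 37 °C; hemoglobin release read spectrophotometrically. Value is the maximal peptide concentration producing no hemolysis, relative to erythrocytes without peptide.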

[3] = test system: E. faecalis
Outline: (§1)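 Microtiter dilution in LB no-salt or Mueller-Hinton medium, with BHI for Pseudomonas aeruginosa clinical isolates (final inoculum 1×10^6 CFU/ml). Plates were incubated 24 hours at 37° C. MIC was the lowest peptide concentration inhibiting growth.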

[4] = test system: C. albicans
Outline: as §1

[5] = CD temperature denaturation study of peptide V681; assay type: physicochemical; conditions: 50% TFE in 0.05% aq. TFA (pH 2); 50% of α-helical structure denatured
Procedure: We next used temperature profiling during RP-HPLC to determine the self-association ability of the various analogs of V681 which would occur through interaction of the non-polar faces of these amphipathic α-helices. […] In order to investigate the stability of V681 in a hydrophobic environment, we carried out a temperature denaturation study in solution, as monitored by circular dichroism spectroscopy. […]
CD Temperature Denaturation Study of Peptide V681—The native peptide V681 was dissolved in 0.05% aqueous TFA containing 50% TFE, pH 2, loaded into a 0.02 cm fused silica cell and peptide ellipticity scanned from 190 to 250 nm at temperatures of 5, 15, 25, 35, 45, 55, 65 and 80° C. […] ([θ]t−[θ]u)/([θ]5−[θ]u) was calculated and plotted against temperature in order to obtain the thermal melting profiles, where [θ]5 and [θ]u represent the molar ellipticity values for the fully folded and fully unfolded species, respectively. [θ]u was determined in the presence of 8M urea with a value of 1500 deg cm^2 dmol^−1 to represent a totally random coil state (31). The melting temperature (Tm) was calculated as the temperature at which the α-helix was 50% denatured (([θ]t−[θ]u)/([θ]5−[θ]u)=0.5) and the values were taken as a measure of α-helix stability.

[6] = test system: human red blood cells; assay: Hemolysis time study (0-8 hours, 8-500 μg/ml); conditions: 500 μg/ml, after 1 hour incubation
Procedure: The percent hemolysis of cells was determined spectrophotometrically by comparison with the complete hemolysis of cells in water.
[…] Peptide samples were diluted 2 fold in order to determine the concentration that produced no hemolysis. […] Hemoglobin release was determined spectrophotometrically at 562 nm. The hemolytic titer was the highest 2-fold dilution of the peptide that still caused release of hemoglobin from erythrocytes. The control for no release of hemoglobin was a sample of 1% erythrocytes without any peptide added. […] Peptide samples were diluted 2 fold in order to determine the concentration that produced no hemolysis. […] Hemoglobin release was determined spectrophotometrically at 570 nm. The hemolytic titer was the highest 2-fold dilution of the peptide that still caused release of hemoglobin from erythrocytes. The control for no release of hemoglobin was a sample of 1% erythrocytes without any peptide added.

[7] = maximal peptide concentration producing no hemolysis after 18 hours, 37° C.

SMILES	MIC (μg/ml) S. epidermidis C621 wt [1] [µg/mL]	Hemolytic activity Fold [2]	Hemolytic activity MHC [2, 7] [µg/mL]	MHC (μg/ml) hRBC ([2]; Table 11) [µg/mL]	MHC (μg/ml) hRBC ([2]; Table 12) [µg/mL]	Hemolytic activity MHC ([2]; red cells of human, 18 h) [µg/mL]	MIC (μg/ml) E. faecalis C625 wt [3] [µg/mL]	MIC (μg/ml) C. albicans [4] [µg/mL]	transition temperature Tm [5] [°C]	hemolysis of human red blood cells [6] [%]	MIC (μg/ml) C. albicans ([4]; fungus) [µg/mL]	Hemolytic activity Fold ([2]; fold decrease in hemolytic activity compared to V681, 18 hours)	Hemolytic activity MHC ([2]; maximal peptide concentration showing no hemolysis after 18 hours, hRBC, Table 14) [µg/mL]	MIC (μg/ml) E. faecalis C625 wt ([3]; wild type strain) [µg/mL]
CC[C@H](C)[C@H](NC(=O)[C@H](C)NC(=O)[C@H](CCCCN)NC(=O)[C@H](CC(C)C)NC(=O)[C@H](C)NC(=O)[C@@H](NC(=O)[C@H](Cc1c[nH]cn1)NC(=O)[C@H](CC(C)C)NC(=O)[C@@H](NC(=O)[C@@H](NC(=O)[C@H](CCCCN)NC(=O)[C@@H](C)NC(=O)[C@H](C)NC(=O)[C@H](CO)NC(=O)[C@H](CCCCN)NC(=O)[C@H](Cc1ccccc1)NC(=O)[C@@H](NC(=O)[C@H](CCCCN)NC(=O)[C@H](CC(C)C)NC(=O)[C@H](Cc1ccccc1)NC(=O)[C@H](CO)NC(=O)[C@H](CCCCN)NC(=O)[C@H](Cc1c[nH]c2ccccc12)NC(=O)[C@H](CCCCN)NC(C)=O)[C@@H](C)O)[C@@H](C)O)C(C)C)[C@@H](C)O)C(=O)N[C@@H](CO)C(=O)N[C@@H](CO)C(N)=O [NAD]	1.6 (≈ 0.545 µM)	4	31.3	31.3	31.3	31.3	12.5 (≈ 4.26 µM)	12.5 (≈ 4.26 µM)						
CC[C@H](C)[C@H](NC(=O)[C@H](C)NC(=O)[C@H](CCCCN)NC(=O)[C@H](CC(C)C)NC(=O)[C@H](C)NC(=O)[C@@H](NC(=O)[C@H](Cc1c[nH]cn1)NC(=O)[C@H](CC(C)C)NC(=O)[C@@H](NC(=O)[C@@H](NC(=O)[C@H](CCCCN)NC(=O)[C@@H](NC(=O)[C@H](C)NC(=O)[C@H](CO)NC(=O)[C@H](CCCCN)NC(=O)[C@H](Cc1ccccc1)NC(=O)[C@@H](NC(=O)[C@H](CCCCN)NC(=O)[C@H](CC(C)C)NC(=O)[C@H](Cc1ccccc1)NC(=O)[C@H](CO)NC(=O)[C@H](CCCCN)NC(=O)[C@H](Cc1c[nH]c2ccccc12)NC(=O)[C@H](CCCCN)NC(C)=O)[C@@H](C)O)C(C)C)[C@@H](C)O)C(C)C)[C@@H](C)O)C(=O)N[C@@H](CO)C(=O)N[C@@H](CO)C(N)=O [Peptide V681, reference compound]	6.3 (≈ 2.13 µM)		7.8	7.8	7.8		6.3 (≈ 2.13 µM)		79.3	100	12.5 (≈ 4.22 µM)			
CC[C@H](C)[C@H](NC(=O)[C@H](C)NC(=O)[C@H](CCCCN)NC(=O)[C@H](CC(C)C)NC(=O)[C@H](C)NC(=O)[C@@H](NC(=O)[C@H](Cc1cnc[nH]1)NC(=O)[C@H](CC(C)C)NC(=O)[C@@H](NC(=O)[C@@H](NC(=O)[C@H](CCCCN)NC(=O)[C@H](CCCCN)NC(=O)[C@H](C)NC(=O)[C@H](CO)NC(=O)[C@H](CCCCN)NC(=O)[C@H](Cc1ccccc1)NC(=O)[C@@H](NC(=O)[C@H](CCCCN)NC(=O)[C@H](CC(C)C)NC(=O)[C@H](Cc1ccccc1)NC(=O)[C@H](CO)NC(=O)[C@H](CCCCN)NC(=O)[C@H](Cc1c[nH]c2ccccc12)NC(=O)[C@H](CCCCN)NC(C)=O)[C@@H](C)O)[C@@H](C)O)C(C)C)[C@@H](C)O)C(=O)N[C@@H](CO)C(=O)N[C@@H](CO)C(N)=O [NKL]	6.3 (≈ 2.11 µM)		250.0	250.0	250.0						50.0 (≈ 16.7 µM)	32	250.0	50.0 (≈ 16.7 µM)
